Measurements published in EP0146155A1, “Ether of N-propanolamine derivative” (AKZO N.V., priority 1983, dated 1985).

Columns and labels:
[1] = system: rat; assay: arrhythmogenic activity under specific hypokalaemic conditions in the rat; assay type: in vivo
[2] = system: patients; conditions: clinical use; predominantly elderly patients, often hypokalaemic conditions; cited from earlier work
[3] = system: calcium; assay: calcium-antagonistic activity (measure for anti-anginal activity); conditions: compared with either the racemate or the levo-rotatory isomer
[4] = anti-arrhythmic potency; conditions: compared with the racemate and the levo-rotatory isomer
[5] = solubility in water; assay type: physicochemical; conditions: compared with the racemate
[6] = QTc prolongation in the ECG (electrocardiogram); assay type: in vivo

In the case of CC(C)COCC(CN(Cc1ccccc1)c1ccccc1)N1CCCC1 (racemic) [racemate, bepridil, reference compound], the arrhythmogenic activity [1] is given as “exacerbates arrhythmias” and the “rhythm disturbance of the ventricular tachycardia type” value [2] is given as “in rare cases been attended by a self limiting rhythm disturbance of the so-called ventricular tachycardia type”.

For CC(C)COC[C@@H](CN(Cc1ccccc1)c1ccccc1)N1CCCC1 [R-(dextro-rotatory) isomer, R-β-[(2-methylpropoxy)-methyl]-N-phenyl-N-(phenylmethyl)-l-pyrrolidine-ethanamine], the calcium-antagonistic activity [3] was “significant increase of calcium-antagonistic activity”, the anti-arrhythmic potency [4] was “not significantly different” and the arrhythmogenic activity [1] was “do not possess arrhythmogenic activity”. The solubility in water [5] was “much better solubility in water than the racemate” and the QTc prolongation [6] was “does not produce QTc prolongation”.
